One may read the inhibition as how much of the control response was suppressed. In general, Kd refers to the free concentration of one partner at which half of the binding sites on the other are occupied at equilibrium, for simple one-to-one binding.

Five molecules from patent US8410152B2 (Max-Planck-Gesellschaft zur Forderung der Wissenschaften e. …, priority 2006, dated 2013) can be followed below.

Where only a bound is given, the exact number is not on record here.

The test system of data set [1] is N2a/K18ΔK280 cells. Nature of the data set: Tau aggregation and inhibition assay in cells (ThS staining). It is filed as cell-based. Conditions: N2a/K18ΔK280 cells, 5 days; for inhibition at 10 µM: 120 h, compound 10 μM with doxycyclin, ThS-positive cells scored, read-out: Inhibition in cells. The method, then:
Selection of an N2a, Tet-On, G418-resistant cell line: N2a cells were cotransfected with both the pUHD172-1 plasmid (encoding the rtTA, obtained from H. Bujard, Heidelberg) and pEU-1 plasmid (encoding G418 resistance, a derivative of pRc/CMV, Invitrogen) (ratio 20:1; 1 μg/well of 6-well plates) using the DOTAP transfection reagent (Roche, Basel, CH). The cells were cultured in Eagle's Minimum Essential Medium (MEM) supplemented with 10% defined fetal bovine serum and subjected to G418 (600 μg/ml) and selection. The cells were fed with fresh media every 4 days for 3-4 weeks when single colonies appeared. Clones were tested for the induction level by transient transfection of pUHG 16-3 plasmid and the induction of β-galactosidase was measured.
Generation of inducible Tet-On cell lines: The DNA fragments encoding the appropriate tau constructs (K18WT, K18ΔK280, K18/ΔK280/PP) were inserted into the bidirectional vector pBI-5 between ClaI and SalI restriction sites (pBI-5 is an unpublished derivative of pBI-2, Baron et al., 1995). The pBI-5/K18-derived plasmids with pX343 (plasmid encoding the hygromycin resistance) were used for cotransfection of N2a/Tet-On, G418-resistant cells with the aid of DOTAP (20:1 plasmid ratio; 1 μg/well of 6-well plates). The cells were seeded at 4×10^5 cells per well. On the following day cells were transferred to 100-mm dishes and selected with 100 μg/ml of hygromycin and 600 μg/ml of G418. Clonal cell lines were screened for the inducible expression of K18 derivatives by measuring luciferase activity with the luciferase assay and immunofluorescence for tau protein with the polyclonal pan-tau antibody K9JA.
Induction of K18-derivatives in Tet-On N2a cells: The inducible N2a/K18-derivatives cells were cultured in MEM medium supplemented with 10% fetal calf serum, 2 mM glutamine and 0.1% nonessential amino acids. The expression of K18 constructs was induced by adding 1 μg doxycyclin (Dox) per 1 ml medium. The induction was continued for 7-11 days, the medium was changed 3 times (always complemented with doxycyclin). For tau solubility assays the cells were collected by pelleting during centrifugation at 1000×g for 5 min. The levels and solubility of tau K18/ΔK280 were determined following Greenberg and Davies (1990). The cells were homogenized (DIAX900, Heidolph, Schwabach, Germany) in 10 vol (w/v) of buffer consisting of 10 mM Tris-HCl (pH 7.4), 0.8 M NaCl, 1 mM EGTA, and 10% sucrose. The homogenate was spun for 20 min at 20000×g, and the supernatant was retained. The pellet was re-homogenized in 5 vol of homogenization buffer and re-centrifuged. Both supernatants were combined, brought to 1% N-laurylsarkosinate (w/v) and incubated for 1 hr at room temperature while shaking, followed by centrifugation at 100 000×g for 1 hr. The sarkosyl-insoluble pellets were resuspended in 50 mM Tris-HCl (pH 7.4), 0.5 ml per 1 g of starting material. The supernatant and sarkosyl-insoluble pellet samples were analyzed by Western blotting. The amount of material loaded for supernatant and sarkosyl-insoluble pellet represented about 0.5% and 15% of the total material present in the supernatant and pellet respectively (the ratio between supernatant and sarkosyl insoluble pellet was always 1:30). For quantification of tau levels in each fraction, the Western blots were probed with pan-tau antibody K9JA and analyzed by densitometry (LAS 3000 and AIDA software, Raytest, Straubenhardt, Germany).
Quantitation of tau aggregation in cells by Thioflavin S (ThS) staining: Tet-On inducible undifferentiated N2a cells were treated with 1 μg/ml doxycyclin for 5, 7 or 9 days in a culture dish. After that the cells were trypsinized and transferred to coverslips and incubated overnight. The cells on the coverslips were fixed with 4% paraformaldehyde in PBS for 15 min, then permeabilized with 80% MeOH for 6 min at −20° C., and incubated with 0.1% Thioflavin S for 5 min and washed three times in ethanol (50%). […]

Data set [2] has as its system uninduced N2A cells. In kind it is cell-based. The following applies: cell death as percent of LDH released into medium vs total LDH, compound 10 μM. The procedure, abridged:
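Compound at 10 μM final was added to uninduced N2A cells. LDH activity was read at 492 nm. Cell death was expressed as percent LDH released into medium relative to total LDH after full cell lysis.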

Data set [3] deals with tau construct K19 (Homo sapiens, UniProt P10636). Nature of the data set: Thioflavine S (ThS) assay for aggregation of tau. In kind it is biochemical. Conditions: 10 μM tau construct K19, 2.5 μM heparin, ThS fluorescence; for DC50: read-out: DC50; for IC50: over night at 37° C., read-out: ID50 (the source's name). The method, then:
Thioflavine S (ThS) Assay for aggregation of tau: 10 μM of the tau construct K19 were incubated with compounds in a concentration range from 1 nM up to 200 μM in the presence of 2.5 μM heparin in 50 mM NH4Ac buffer over night at 37° C. After addition of 20 μM ThS the signal was measured at 521 nm (emission) at an excitation wavelength of 440 nm. The results of this assay are presented in the IC50 column and DC50 column of Table 1 below.

In data set [4] the target is tau construct K18 (Homo sapiens, UniProt P10636). Nature of the data set: STD-NMR determination of dissociation constant. The following applies: STD-NMR titration data for proton I, 10 μM soluble K18, PBS/D2O, 295 K; read-out: KD of K18-BSc3094 complex. In kind it is binding. The method, then:
STD-NMR: All STD NMR experiments were made in 3 mm Match® tubes in a 700 MHz spectrometer with cryogenic probe head at 295 K. The quantity of protein was kept small by the small diameter of the sample tubes. The spectra were measured with a spectral width of 11.0208 ppm and 32k data points with application of the WATERGATE water suppression (w5-sequence). The suppression of the protein resonances was reached by a spin lock pulse with a length of 15 ms and a attenuation of 11 dB. We used a pulse program in which the presaturation was accomplished alternating after each scan for the on and off resonance experiment at the selected frequencies. Thus artefacts are prevented during the difference formation due to in homogeneities. As point of irradiation for the on resonance experiments we selected 540 Hz (0.77 ppm). As point of irradiating for the off resonance experiments 40,000 Hz (57.1 ppm) was selected. The saturation duration in all experiments was 4 seconds, the attenuation of the saturation power 45 dB. 2044 scans were collected per experiment. After phase correction the FID was multiplied by an exponential function to improve the signal to noise ratio, which caused a line broadening of 1 Hz.
For the determination of the dissociation constant a sample with 10 μM soluble K18 and 80 μM DTT-d6 in 200 μL PBS/D2O was prepared. […]

tau construct K19, sequence (P10636 with tags, fused parts or gaps isoform P10636-2 limits assumed): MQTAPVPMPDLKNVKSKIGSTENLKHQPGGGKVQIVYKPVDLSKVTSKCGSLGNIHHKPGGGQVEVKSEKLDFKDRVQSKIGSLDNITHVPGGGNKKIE
tau construct K18, sequence (P10636 with tags, fused parts or gaps isoform P10636-8 limits assumed): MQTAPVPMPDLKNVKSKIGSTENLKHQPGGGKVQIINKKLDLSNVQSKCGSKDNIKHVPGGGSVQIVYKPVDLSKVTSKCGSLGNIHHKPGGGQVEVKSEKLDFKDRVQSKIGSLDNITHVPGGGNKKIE

Take `O=C(NNc1nc(-c2ccc([N+](=O)[O-])cc2)cs1)c1ccc2[nH]cnc2c1` [Comp. 8, N′-[4-(4-Nitrophenyl)-1,3-thiazol-2-yl]-1H-benzimidazole-5-carbohydrazide]: the inhibition at 10 µM in data set [1] is 82.2%. In addition, the LDH in data set [2] amounted to 5.2%. In data set [3], the DC50 was 0.7 µM and the IC50 is 1.6 µM. Also, in data set [4], the Kd is 62 ± 12 µM.

`COc1ccc(C(=O)NNc2nc(C3C4CC5CC(C4)CC3C5)cs2)cc1` (stereo not drawn) [Comp. 65, N′-[4-(2-adamantyl)-1,3-thiazol-2-yl]-4-mathoxybenzohydrazide]: the inhibition at 10 µM in data set [1] worked out at 42.1%. Moreover, in data set [2], the LDH was determined as 39.4%. In addition, in data set [3], the DC50 was above 200 µM and the IC50 came to 112 µM.

Turning to `O=C(NNc1nc2c(s1)Cc1ccccc1-2)c1ccc(C(F)(F)F)cc1` [Comp. 66, N′-8H-indeno[1,2-d][1,3]thiazol-2-yl-4-(trifluoromethyl)benzohydrazide], the inhibition at 10 µM in data set [1] was determined as 53.9%. In data set [2], the LDH is recorded as −4.6%. Also, in data set [3], the DC50 stood at 2.7 µM and the IC50 is 4.1 µM.

Turning to `N#Cc1ccc(-c2csc(NNC(=O)c3cccc(F)c3)n2)cc1` [Comp. 67, N′-[4-(4-cyanophenyl)-1,3-thiazol-2-yl]-3-fluorobenzohydrazide], the “Inhibition in cells (result in words: cytotoxicity)” value in data set [1] (compound 10 μM) is given as “Cytotoxic at 5 d”. Moreover, the LDH in data set [2] came to 19.8%. Further, in data set [3], the DC50 worked out at 28.7 µM and the IC50 was determined as 19.7 µM.

As for `O=C(NNc1nc(-c2ccc(Cl)cc2)cs1)C1CCCCC1` [Comp. 68, N′-[4-(4-chlorophenyl)-1,3-thiazol-2-yl]cyclohexanecarbohydrazide], in data set [1], the inhibition at 10 µM worked out at 46.4%. The LDH in data set [2] is −2.8%. In data set [3], the DC50 stood at 162 µM and the IC50 worked out at 69.1 µM.
